Experimental data from patent publication US20260364080A1, “PYRAZOLO-PYRIMIDINONE COMPOUNDS FOR USE IN METHODS OF INHIBITING WEE1 A KINASE” (Acrivon Therapeutics, Inc., priority 2023, published 2026).

Experiments:
DAOY cells = assay: Cell Titer Glo viability assay, DAOY cells; format: cell-based; settings: Homo sapiens, 144 h, absolute EC50
Procedure: Each of an ACHN renal cell carcinoma cell line (ATCC) and a DAOY medulloblastoma cell line, and an A427 lung cancer line were cultured in Minimum Essential Medium Eagle supplemented with 10% fetal calf serum (Sigma), 1% Penicillin-Streptomycin and 10 mM HEPES buffer (HyClone). Cell cultures were kept in a humidified incubator at 37 °C and 5% CO2. Cells were routinely tested for Mycoplasma contamination.
ACHN cells, DAOY cells, or A427 cells were seeded at a density of 400, 250, or 500 cells per well respectively, in tissue culture treated 384 well plates (Corning Costar). After overnight incubation, cells were treated with drugs at concentrations ranging from 17 to 10 000 nM. Viability compared to untreated control was assessed at 144 h using Cell Titer Glo assay 2.0 (Promega). […] “NT” means the compounds was not tested in the indicated cells.

[1] = target: T1, recombinant human Wee1A kinase (Homo sapiens, UniProt P30291); assay: Wee1A kinase binding assay (LanthaScreen Eu time-resolved FRET); settings: 30 nM tracer 178, 5 nM Wee1A kinase, 2 nM Eu-labeled antibody; 60 minutes at room temperature; read-out: Wee1A kinase Binding IC50
T1 construct: full length Wee1 kinase was expressed by baculovirus in insect cells; purchased Invitrogen PV3817; host or cells: insect cells (baculovirus)
Outline: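 Full-length, baculovirus-expressed GST-tagged Wee1A (5 nM) was mixed with 2 nM Eu-anti-GST antibody, 30 nM kinase tracer 178 and compound (1% DMSO). Buffer was 50 mM HEPES pH 7.5, 10 mM MgCl2, 1 mM EGTA, 0.01% Brij-35, incubated 60 min at room temperature. TR-FRET 665/615 nm emission ratios from duplicates were curve-fitted.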

[2] = target: T2, Myt1 kinase (recombinant PMYT-1) (Homo sapiens, UniProt Q99640); assay: Myt1 kinase binding assay (LanthaScreen Eu Kinase Binding Assay); settings: 3 nM tracer 178, 2.5 nM PMYT-1, 1 nM Eu-labeled antibody; read-out: Myt1 kinase Binding IC50
T2 construct: full length PMYT-1 was expressed by baculovirus in insect cells; purchased Invitrogen A30984; host or cells: insect cells (baculovirus)
T2 sequence (Q99640 1-499): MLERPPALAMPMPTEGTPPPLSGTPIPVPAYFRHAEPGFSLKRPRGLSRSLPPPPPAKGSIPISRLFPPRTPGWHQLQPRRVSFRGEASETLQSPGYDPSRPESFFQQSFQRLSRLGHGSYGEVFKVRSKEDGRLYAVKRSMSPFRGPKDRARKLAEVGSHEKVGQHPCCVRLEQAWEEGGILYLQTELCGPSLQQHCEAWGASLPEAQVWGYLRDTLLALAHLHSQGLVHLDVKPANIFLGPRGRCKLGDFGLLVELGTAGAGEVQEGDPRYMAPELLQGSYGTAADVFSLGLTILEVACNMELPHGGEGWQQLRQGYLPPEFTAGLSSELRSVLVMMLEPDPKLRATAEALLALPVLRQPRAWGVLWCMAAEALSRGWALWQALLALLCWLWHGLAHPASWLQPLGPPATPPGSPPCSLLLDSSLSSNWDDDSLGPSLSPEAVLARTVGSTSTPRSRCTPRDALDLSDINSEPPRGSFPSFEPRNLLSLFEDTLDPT
Outline: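 The binding affinity of compounds for Myt1 kinase was measured with a LanthaScreen Europium (Eu) Kinase Binding Assay, a time-resolved FRET format in which test compounds compete against a labeled kinase tracer, and the results were expressed as IC50 values describing compound binding to Myt1.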

ACHN cells = assay: Cell Titer Glo viability assay, ACHN cells; format: cell-based; settings: Homo sapiens, 144 h, absolute EC50
Outline: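 Cells grown in MEM with 10% FCS were seeded at 500 (A427), 400 (ACHN) or 250 (DAOY) per well and treated the next day with compound at 17 to 10 000 nM. Viability relative to untreated control was read at 144 h by CellTiter-Glo 2.0.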

[3] = target: T3, Wee1A kinase (CDK1 Tyr15 phosphorylation in ACHN renal cell carcinoma cells) (Homo sapiens, UniProt P30291); assay: High-content imaging of pCdk1 Y15, Wee1A kinase target engagement in ACHN cells; format: cell-based; settings: 4 h treatment, nuclear positivity for pCdk1 Y15 vs DMSO control, read-out: CDK1 Tyr15 Phosphorylation EC50
T3 construct: pCDK1 Tyr15 immunofluorescence read-out
Outline: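 ACHN cells exposed to compound for 4 h over 7–5,000 nM or 0.3–200 nM, then fixed and immunostained for pCDK1 Y15 with DAPI nuclear counterstain. The percentage of pCdk1 Y15 nucleus-positive cells relative to DMSO control was imaged per well; EC50 from dose-response curves.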

[4] = target: T4, Myt1 kinase (CDK1 Thr14 phosphorylation in DAOY medulloblastoma cells) (Homo sapiens, UniProt Q99640); assay: AlphaLISA assay, Myt1 kinase target engagement (phospho-CDK1 Thr14) in DAOY cells; format: cell-based; settings: 4 h treatment, read-out: CDK1 Thr14 Phosphorylation EC50
T4 construct: pCDK1 Thr14 AlphaLISA read-out
T4 sequence (Q99640 1-499): T2 sequence (Q99640 1-499)
Outline: (§1)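 Cells seeded at 10,000 (DAOY) or 20,000 (ACHN) per well, treated 24 h later for 4 h with compound at 7–5000 nM. Lysates analysed by AlphaLISA SureFire Ultra phospho-CDK1 (Thr14) with donor/acceptor beads; EC50 from dose-response curves.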

[5] = target: T5, Myt1 kinase (CDK1 Thr14 phosphorylation in ACHN renal cell carcinoma cells) (Homo sapiens, UniProt Q99640); assay: AlphaLISA assay, Myt1 kinase target engagement (phospho-CDK1 Thr14) in ACHN cells; format: cell-based; settings: ACHN cells (marked *); 4 h treatment
T5 construct: pCDK1 Thr14 AlphaLISA read-out
T5 sequence (Q99640 1-499): T2 sequence (Q99640 1-499)
Outline: as §1

T3 sequence (P30291 whole entry): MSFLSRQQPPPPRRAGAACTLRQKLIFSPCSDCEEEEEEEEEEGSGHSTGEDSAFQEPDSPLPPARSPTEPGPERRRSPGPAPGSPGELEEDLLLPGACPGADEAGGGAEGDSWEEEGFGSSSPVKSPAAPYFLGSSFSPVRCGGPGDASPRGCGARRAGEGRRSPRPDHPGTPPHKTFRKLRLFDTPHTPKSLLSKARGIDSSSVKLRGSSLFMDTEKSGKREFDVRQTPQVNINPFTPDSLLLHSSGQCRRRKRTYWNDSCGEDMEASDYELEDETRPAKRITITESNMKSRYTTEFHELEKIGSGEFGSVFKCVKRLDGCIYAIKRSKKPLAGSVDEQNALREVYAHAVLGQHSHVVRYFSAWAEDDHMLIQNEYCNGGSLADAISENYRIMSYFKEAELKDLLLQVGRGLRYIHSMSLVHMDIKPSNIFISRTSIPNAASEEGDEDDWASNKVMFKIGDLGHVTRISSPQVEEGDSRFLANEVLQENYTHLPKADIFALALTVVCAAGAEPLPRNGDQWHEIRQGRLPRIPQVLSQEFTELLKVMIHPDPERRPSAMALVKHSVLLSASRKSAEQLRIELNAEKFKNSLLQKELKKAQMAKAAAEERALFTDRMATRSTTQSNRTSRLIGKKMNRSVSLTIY
T1 sequence (P30291 whole entry): as above

Row | Structure (SMILES) | EC50 (DAOY cells) [nM] | IC50 [1] [nM] | IC50 [2] [nM] | EC50 (ACHN cells) [nM] | EC50 [3] [nM] | EC50 [4] [nM] | EC50 [5] [nM]
1 | C=CCn1c(=O)c2cnc(Nc3ccc4c(c3)OCO4)nc2n1-c1cccc(OC2CCN(C)CC2)n1 [Compound 307, 2-allyl-6-(2H-1,3-benzodioxol-5-ylamino)-1-[6-(1-methyl-4-piperidyloxy)-2-pyridyl]-1,2-dihydro-3H-1,2,5,7-tetraazainden-3-one] | ≤ 100 | < 10 | 20 to 100 | ≤ 100 | < 100 | 200 to 500 | 
2 | C=CCn1c(=O)c2cnc(Nc3cccc(C)c3)nc2n1-c1cccc(OC2CCN(C)CC2)n1 [Compound 191, 2-allyl-1-[6-(1-methyl-4-piperidyloxy)-2-pyridyl]-6-m-toluidino-1,2-dihydro-3H-1,2,5,7-tetraazainden-3-one] | ≤ 100 | < 10 | < 20 | ≤ 100 | < 100 | 200 to 500 | 
3 | C=CCn1c(=O)c2cnc(Nc3ccc(F)cc3)nc2n1-c1cccc(OC2CCN(C)CC2)n1 [Compound 207, 6-[(4-fluorophenyl)amino]-1-{6-[(1-methylpiperidin-4-yl)oxy]pyridin-2-yl}-2-(prop-2-en-1-yl)-1H,2H,3H-pyrazolo[3,4-d]pyrimidin-3-one] | ≤ 100 | < 10 | 20 to 100 | ≤ 100 | < 100 | 500 to 1000 | 
4 | C=CCn1c(=O)c2cnc(Nc3ccc4ncsc4c3)nc2n1-c1cccc(OC2CCN(C)CC2)n1 [Compound 303, 2-allyl-6-(1,3-benzothiazol-6-ylamino)-1-[6-(1-methyl-4-piperidyloxy)-2-pyridyl]-1,2-dihydro-3H-1,2,5,7-tetraazainden-3-one] | 100 to 500 | < 10 | < 20 | ≤ 100 | < 100 | 200 to 500 | 
5 | C=CCn1c(=O)c2cnc(Nc3ccc4cccnc4c3)nc2n1-c1cccc(OC2CCN(C)CC2)n1 [Compound 335, 2-allyl-1-[6-(1-methyl-4-piperidyloxy)-2-pyridyl]-6-(7-quinolylamino)-1,2-dihydro-3H-1,2,5,7-tetraazainden-3-one] | ≤ 100 | < 10 | < 20 | ≤ 100 | < 100 | 200 to 500 | 
6 | C=CCn1c(=O)c2cnc(Nc3ccc4c(ccn4C)c3)nc2n1-c1cccc(OC2CCNCC2)n1 [Compound 236, 2-allyl-6-((1-methyl-1H-indol-5-yl)amino)-1-(6-(piperidin-4-yloxy)pyridin-2-yl)-1,2-dihydro-3H-pyrazolo[3,4-d]pyrimidin-3-one] | ≤ 100 | < 10 | 20 to 100 | ≤ 100 | < 100 | 200 to 500 | 
7 | C=CCn1c(=O)c2cnc(Nc3ccc4c(cnn4C(C)C)c3)nc2n1-c1cccc(OC2CCN(C)CC2)n1 [Compound 248, 2-allyl-6-(1-isopropyl-1H-indazol-5-ylamino)-1-[6-(1-methyl-4-piperidyloxy)-2-pyridyl]-1,2-dihydro-3H-1,2,5,7-tetraazainden-3-one] | ≤ 100 | < 10 | < 20 | ≤ 100 | < 100 | < 200 | 
8 | C=CCn1c(=O)c2cnc(Nc3ccc4scnc4c3)nc2n1-c1cccc(OC2CCN(C)CC2)n1 [Compound 209, 2-allyl-6-(benzo[d]thiazol-5-ylamino)-1-(6-((1-methylpiperidin-4-yl)oxy)pyridin-2-yl)-1,2-dihydro-3H-pyrazolo[3,4-d]pyrimidin-3-one] | ≤ 100 | < 10 | < 20 | ≤ 100 | < 100 | < 200 | 
9 | C=CCn1c(=O)c2cnc(Nc3ccc(C)nc3)nc2n1-c1cccc(OC2CCN(C)CC2)n1 [Compound 197, 2-allyl-1-[6-(1-methyl-4-piperidyloxy)-2-pyridyl]-6-(6-methyl-3-pyridylamino)-1,2-dihydro-3H-1,2,5,7-tetraazainden-3-one] | ≤ 100 | < 10 | 20 to 100 | ≤ 100 | < 100 | 500 to 1000 | 
10 | C=CCn1c(=O)c2cnc(Nc3ccc4nc(C)oc4c3)nc2n1-c1cccc(OC2CCN(C)CC2)n1 [Compound 311, 2-allyl-6-(2-methyl-1,3-benzoxazol-6-ylamino)-1-[6-(1-methyl-4-piperidyloxy)-2-pyridyl]-1,2-dihydro-3H-1,2,5,7-tetraazainden-3-one] | ≤ 100 | < 10 | 20 to 100 | ≤ 100 | < 100 | < 200 | 
11 | C=CCn1c(=O)c2cnc(Nc3ccc4oc(C)nc4c3)nc2n1-c1cccc(OC2CCN(C)CC2)n1 [Compound 231, 2-allyl-6-(2-methyl-1,3-benzoxazol-5-ylamino)-1-[6-(1-methyl-4-piperidyloxy)-2-pyridyl]-1,2-dihydro-3H-1,2,5,7-tetraazainden-3-one] | ≤ 100 | < 10 | < 20 | ≤ 100 | < 100 | 200 to 500 | 
12 | C=CCn1c(=O)c2cnc(Nc3ccc4c(c3)c(C)nn4C)nc2n1-c1cccc(OC2CCN(C)CC2)n1 [Compound 346, 2-allyl-6-((1,3-dimethyl-1H-indazol-5-yl)amino)-1-(6-((1-methylpiperidin-4-yl)oxy)pyridin-2-yl)-1,2-dihydro-3H-pyrazolo[3,4-d]pyrimidin-3-one] |  | < 10 | 20 to 100 | ≤ 100 | < 100 |  | 200 to 500
13 | C=CCn1c(=O)c2cnc(Nc3ccc4c(cnn4CCC)c3)nc2n1-c1cccc(OC2CCNCC2)n1 [Compound 390, 2-allyl-1-[6-(4-piperidyloxy)-2-pyridyl]-6-(1-propyl-1H-indazol-5-ylamino)-1,2-dihydro-3H-1,2,5,7-tetraazainden-3-one] |  | < 10 | < 20 | ≤ 100 | < 100 |  | < 200
14 | CN1CCC(Oc2cccc(-n3c4nc(Nc5ccc6c(ccn6C)c5)ncc4c(=O)n3C)n2)CC1 [Compound 360, 2-methyl-6-((1-methyl-1H-indol-5-yl)amino)-1-(6-((1-methylpiperidin-4-yl)oxy)pyridin-2-yl)-1,2-dihydro-3H-pyrazolo[3,4-d]pyrimidin-3-one] |  | < 10 | 20 to 100 | ≤ 100 | < 100 |  | 500 to 1000
